From patent US9102675B2, “3-Cyanoaryl-1H-pyrrolo[2,3-B] pyridine derivatives” (MERCK PATENT GMBH, priority 2011, dated 2015)
Read-outs that look alike come from different tables or passages of the source.

Columns and labels:
[1] = target: T1, TANK binding kinase (TBK1) (Homo sapiens, UniProt Q9UHD2); test: TBK1 enzyme assay (384-well flashplate kinase assay); assay type: biochemical; settings: 10 μM ATP, 0.6 nM TBK1
T1 sequence (Q9UHD2 1-729): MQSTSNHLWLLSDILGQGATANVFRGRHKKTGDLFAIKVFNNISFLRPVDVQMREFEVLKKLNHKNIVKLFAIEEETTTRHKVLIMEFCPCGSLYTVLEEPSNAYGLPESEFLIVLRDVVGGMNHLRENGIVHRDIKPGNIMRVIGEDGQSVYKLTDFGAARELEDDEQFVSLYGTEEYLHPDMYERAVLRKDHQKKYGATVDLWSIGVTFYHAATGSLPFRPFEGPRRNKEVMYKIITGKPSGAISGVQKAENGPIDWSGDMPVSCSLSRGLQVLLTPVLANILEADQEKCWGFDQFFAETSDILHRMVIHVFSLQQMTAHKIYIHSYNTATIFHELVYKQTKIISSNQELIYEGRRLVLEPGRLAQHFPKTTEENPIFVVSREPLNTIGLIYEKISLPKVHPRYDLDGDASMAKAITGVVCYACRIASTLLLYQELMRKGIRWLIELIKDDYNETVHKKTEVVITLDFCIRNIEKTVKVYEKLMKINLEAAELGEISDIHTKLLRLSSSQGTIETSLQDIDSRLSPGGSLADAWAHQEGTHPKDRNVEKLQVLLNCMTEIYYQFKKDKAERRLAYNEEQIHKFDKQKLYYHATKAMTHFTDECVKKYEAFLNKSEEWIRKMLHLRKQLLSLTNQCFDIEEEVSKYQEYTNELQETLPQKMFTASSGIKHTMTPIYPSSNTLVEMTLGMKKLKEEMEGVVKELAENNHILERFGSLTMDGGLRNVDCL
Description: Test for the Inhibition of TBK1
The kinase assay is performed as 384-well flashplate assay (for example for Topcount measurement).
0.6 nM TANK binding kinase (TBK1), 800 nM biotinylated MELK-derived peptide (biotin-Ah-Ah-[…]) and 10 μM ATP (spiked with 0.25 μCi of ^33P-ATP/well) are incubated at 30° C. for 120 min in a total volume of 50 μl (10 mM MOPS, 10 mM Mg acetate, 0.1 mM EGTA, 1 mM DTT, 0.02% of Brij35, 0.1% of BSA, pH 7.5) with or without test compound. The reaction is stopped with 25 μl of 200 mM EDTA. After 30 min at room temperature, the liquid is removed, and each well is washed three times with 100 μl of 0.9% sodium chloride solution. Non-specific reaction is measured in the presence of 100 nM staurosporine. The radioactivity is measured in a Topcount (PerkinElmer). The results (for example IC50 values) are calculated using program tools provided by the IT Department (for example Assay-Explorer, Symyx). Cell Test

TBK1 + IKKε = TBK1 + IKKε cell assay: dose response inhibition of phospho-IRF3 @ Ser 386 in MDA-MB-468 cells after poly(I:C) stimulation; assay type: cell-based; settings: nuclear phospho-IRF3 Ser386, read-out: TBK1 + IKKε cell assay IC50
From the text: Dose response inhibition of phospho-IRF3 @ Ser 386 cell/MDAMB468/INH/PHOS/IMAG/pIRF3
Although TBK1 and IKKε are mainly known as key substances in the innate immune response, recent findings have indicated a role for TBK1 and IKKε in Ras-induced oncogenic transformation. TBK1 was identified as RaIB effector in the Ras-like (RaI)-guanine nucleotide exchange factor (GEF) pathway that is required for Ras-induced transformation. TBK1 directly activates IRF3 which, on phosphorylation, homodimerises and translocates to the nucleus, where it activates processes associated with inflammation, immune regulation, cell survival and proliferation.
This assay has been developed in order to assess the efficacy/potency of TBK1/IKKε inhibitor compounds based on the immunocytochemical detection of nucleus-localised phospho-IRF3, a target directly downstream of TBK1. Treatment with polyinosine-polycytidylic acid (poly(I:C), a synthetic analogue of double-stranded RNA (dsRNA), a molecular pattern associated with viral infection and recognised by Toll-like receptor 3 (TLR3) is used to induce TBK1/IKKε activity and IRF3 phosphorylation at Ser386.
Day 1: MDA-MB-468 cells are detached using HyQ-Tase, counted and sown into a 384-well plate with TC surface and clear bottom in a density of 10,000 cells per well in a total volume of 35 μl of complete medium. Alternatively, the cells are sown directly from frozen glass vials.
Day 2: The cells are pre-treated with inhibitor compounds for 1 h prior to poly(I:C) stimulation. After incubation for 2 h with poly(I:C), the cells are fixed in (para)formaldehyde (PFA) and permeabilised using methanol (MeOH). The cells are then blocked and incubated with an anti-pIRF3 antibody at 4° C. overnight.
Day 3: The primary antibody is washed off, an AlexaFluor488-conjugated secondary antibody is added, the cells are contrast-stained with propidium iodide, followed by image acquisition on an IMX ultra-high content reader.
Plating medium=culture medium: • RPMI 1640, Invitrogen #31870 • 10% of FCS, Invitrogen #10270-106 • 2 mM Glutamax, Invitrogen #35050-038 • 1 mM sodium pyruvate, Invitrogen #11360 • 1% of Pen/Strep • 37° C., 5% of CO2
Plates: 384-well bottom cell culture plates with black/clear bottom, Falcon #35 3962 or Greiner #781090
Subcultivation: HyQ-Tase, Thermo Scientific (HyClone) # SV30030.01
Poly(I:C) (LMW), Invitrogen # tlrl-picw (prepare 20 mg/ml stock solution in sterile PBS, denature 30 min 55° C. in a water bath, slowly cool to RT, store at −20° C. in aliquots)
a 10-point dose-response curve with MSC2119074A-4=BX-795 is included in each experiment
Formaldehyde (methanol-free, 16%, ultrapure EM grade), Polysciences #18814 (storage RT), final conc.: 4%
Goat serum, PAA # B15-035 (storage 4° C., long term −20° C.), final conc.: 10%
BSA (IgG- and protease-free, 30%), US-Biological # A1317 (storage 4° C., long term −20° C.), final conc.: 2%
Tween 20 detergent, Calbiochem #655204 (storage RT), (prepare 10% stock solution in water; final conc.: 0.1%)
Anti-pIRF-3 rabbit mAb, Epitomics #2526-B (storage −20° C.), final conc.: 1:2000 in PBS/2% of BSA
Alexa Fluor goat-anti-rabbit-488, Invitrogen # A11034 or # A11008 (storage 4° C., dark), final conc.: 1:2000 in PBS/2% of BSA/0.1% of Tween
Propidium iodide (PI), Fluka #81845, 1 mg/ml in H2O (storage 4° C., dark), final conc.: 0.2 μg/ml
(1) Sow 10,000 cells/well/35μof complete RPMI +10% FCS into 384-well bottom cell culture plates with black / clear bottom,
(2) Incubate for 2 h at room temperature on the bench, followed by further incubation for 22 h at 37° C., 5% of CO2 and 90% RH. […]

[2] = Homo sapiens, MDA-MB-468, MDA-MB-468 cells

SMILES	IC50 [1] [nM]	IC50 (TBK1 + IKKε; [2]) [nM]	IC50 (TBK1 + IKKε; MDA-MB-468 cells) [nM]
N#Cc1cc(-c2c[nH]c3ncc(-c4cnn(C5COC5)c4)cc23)ccc1OC1CCOCC1 [Compound A26, 5-[5-[1-(Oxetan-3-yl)pyrazol-4-yl]-1H-pyrrolo[2,3-b]-pyridin-3-yl]-2-tetrahydropyran-4-yloxybenzonitrile]	< 300	< 300	
N#Cc1cc(-c2c[nH]c3ncc(-c4cnn(CCN5CCOCC5)c4)cc23)ccc1OC1CCOCC1 [Compound A7, 5-[5-[1-(2-morpholinoethyl)pyrazol-4-yl]-1H-pyrrolo[2,3-b]pyridin-3-yl]-2-tetrahydropyran-4-yloxybenzonitrile]	< 300	300 to 3000	
N#Cc1cc(-c2c[nH]c3ncc(-c4cnn(CCN5CCCC5)c4)cc23)ccc1OC1CCOCC1 [Compound A9, 5-[5-[1-(2-pyrrolidin-1-ylethyl)pyrazol-4-yl]-1H-pyrrolo[2,3-b]pyridin-3-yl]-2-tetrahydropyran-4-yloxybenzonitrile]	< 300	300 to 3000	
CC1(COc2ccc(-c3c[nH]c4ncc(-c5cnn(C6COC6)c5)cc34)cc2C#N)COC1 [Compound A35, 2-(3-methyloxetan-3-ylmethoxy)-5-[5-(1-oxetan-3-yl-1H-pyrazol-4-yl)-1H-pyrrolo[2,3-b]-pyridin-3-yl]benzonitrile]	< 300	300 to 3000	
Cn1cc(-c2cnc3[nH]cc(-c4ccc(OCC5(C)COC5)c(C#N)c4)c3c2)cn1 [Compound A32, 2-(3-methyloxetan-3-ylmethoxy)-5-[5-(1-methyl-1H-pyrazol-4-yl)-1H-pyrrolo[2,3-b]pyridin-3-yl]benzonitrile]	< 300	300 to 3000	

Other lines, results leading:

IC50 [1] [nM]	IC50 (TBK1 + IKKε; [2]) [nM]	IC50 (TBK1 + IKKε; MDA-MB-468 cells) [nM]	SMILES
< 300	300 to 3000		COCCn1cc(-c2cnc3[nH]cc(-c4cnc(OC5CCOCC5)c(C#N)c4)c3c2)cn1 [Compound A38, 5-{5-[1-(2-Methoxyethyl)-1H-pyrazol-4-yl]-1H-pyrrolo-[2,3-b]pyridin-3-yl}-2-(tetrahydropyran-4-yloxy)-nicotinonitrile]
< 300	3000 to 50000		Cn1cc(-c2cnc3[nH]cc(-c4ccc(OC5COC5)c(C#N)c4)c3c2)cn1 [Compound A31, 5-[5-(1-methyl-1H-pyrazol-4-yl)-1H-pyrrolo[2,3-b]pyridin-3-yl]-2-(oxetan-3-yloxy)benzonitrile]
< 300	3000 to 50000		N#Cc1cc(-c2c[nH]c3ncc(-c4ccc(N5CCOCC5)cc4)cc23)ccc1OC1CCOCC1 [Compound A8, 5-[5-(4-morpholinophenyl)-1H-pyrrolo[2,3-b]pyridin-3-yl]-2-tetrahydropyran-4-yloxybenzonitrile]
< 300	< 300		COCCn1cc(-c2cnc3[nH]cc(-c4ccc(OC5CCOCC5)c(C#N)c4)c3c2)cn1 [Compound A10, 5-[5-[1-(2-methoxyethyl)pyrazol-4-yl]-1H-pyrrolo[2,3-b]pyridin-3-yl]-2-tetrahydropyran-4-yloxybenzonitrile]
< 300	300 to 3000		N#Cc1cc(-c2c[nH]c3ncc(-c4cnn(CCN5CCCC5)c4)cc23)cnc1OC1CCOCC1 [Compound A33, 5-{5-[1-(2-Pyrrolidin-1-ylethyl)-1H-pyrazol-4-yl]-1H-pyrrolo[2,3-b]pyridin-3-yl}-2-(tetrahydropyran-4-yl-oxy)nicotinonitrile]
< 300		300 to 3000	CN1CCC(n2cc(-c3cnc4[nH]cc(-c5ccc(OC6CCOCC6)c(C#N)c5)c4c3)cn2)CC1 [Compound A20, 5-[5-[1-(1-methyl-4-piperidyl)pyrazol-4-yl]-1H-pyrrolo[2,3-b]pyridin-3-yl]-2-tetrahydropyran-4-yloxybenzonitrile]
